The text below walks through data of patent US10473667B2, “Methods apparatuses and systems for detecting and quantifying phosphoproteins” (Oregon Health & Science University, priority 2012, dated 2019).

Experiment [1] relates to STAT5*. As to the kind of experiment: QD probe assay for STAT5* in whole tumor cells. The conditions noted are these: tumor cells treated with Gleevec vs control (untreated) tumor cells, FIGS. 9A-9B. The experiment is classed as cell-based. The text has this:
Briefly; control tumor cells and tumor cells treated with Gleevec™ were processed (fixing, permeabilization, blocking, washing, etc.) to specifically bind optimized concentrations of QD-anti-STAT5* antibody probes to STAT5* protein kinase. After washing, the cells were imaged in multiple slices using the imaging techniques described above, covering the entire 3D space of the cells. QD probe bound to the cells was then compiled and projected on the cell for quantification.

For experiment [2], the system named is STAT5*. As to the kind of experiment: QD-STAT5* / QD-pSTAT5 probe assay in K562 CML cells. It is filed as cell-based. As to conditions: clonal K562 CML cells, FIG. 11A.
Description: Relative amounts of bound QD probes in each condition were estimated using the algorithms described above.
An epifluorescent microscope was used to acquire images of cells labeled with QD-pCRKL and QD-pSTAT5 probes, including are digital images of tumor cells (FIG. 10A), tumor cells treated with dasatinib (FIG. 10B), and control cells with antibody omitted (FIG. 10C), Average phosphoprotein levels were computed as the average number of QD probes/cell.

For the molecule `Cc1ccc(NC(=O)c2ccc(CN3CCN(C)CC3)cc2)cc1Nc1nccc(-c2cccnc2)n1` [Gleevec™, imatinib], the “STAT5* activation (QD-anti-STAT5* probe binding)” value in the experiment on STAT5* [1] is given as “marked decrease in STAT5* activation”.
Regarding `CC[C@H](C)C(=O)O[C@H]1C[C@@H](C)C=C2C=C[C@H](C)[C@H](CC[C@@H]3C[C@@H](O)CC(=O)O3)[C@H]21` [lovastatin], the “heterogeneity in pSTAT5 activity (SD of QDs/cell)” value in the experiment on STAT5* [2] is “reduced”.
